Measured values: US9265756B2, “Crystalline forms of grapiprant” (Aratana Therapeutics Inc., priority 2014, dated 2016)
Entries after “also recorded” stand apart in the source; their conditions may differ. Blank lines part the entries; values can stand above or below the compound they belong to.

What was measured:
[1] = water activity relating Forms A and D; assay type: physicochemical; settings: room temperature
Method: Overall, FIG. 1 summarizes the relationship of each polymorphic form with relationship to each other. Form J may be converted to Form D by drying in air (1). Form J may be converted to Form A by slurry in DCM/acetone (<1:2 v/v) at 25° C. (2). Form A may be converted to Form J by precipitation from DCM/n-heptane (2:1 v/v) (3). Forms A and D have an aw value of about 0.6 at room temperature (4). Form X may be converted from a slurry mixture of Form D and Form J in DCM/acetone or DCM/n-heptane (2:1 v/v) at room temperature (5). Form X may be converted to Form A by slurry in DCM/acetone (1:1 v/v) (6). Form A may be converted to Form X by slurry in DCM/acetone (≦1:3 v/v (7) or 1:2 v/v with 0.3 wt. % water (8)). Form X2 may be converted to Form A by slurry in DCM/acetone (1:3 v/v) with 0.3 wt. % water (9). Form A may be converted to Form X2 by slurry in acetone with 0.3 wt. % water (10). Form X2 may be converted to Form X3 by drying (11). Form X2 may also be generated by slurry of Forms A and X3 in DCM/acetone (1:3 v/v) with 0.3 wt. % water (12).

[2] = stability of crystalline forms (slurry experiments); settings: in 1:1 DCM/acetone (v/v)
Method: The stability of the crystalline forms was analyzed using slurry experiments. A portion of the solvent of interest was saturated with grapiprant in a small vial. Additional grapiprant was then added to the vial, and the resulting slurry was stirred using a magnetic stir bar.

[3] = solid form change on heating (XRPD); assay type: physicochemical
Method: The X-ray powder diffraction (XRPD) pattern was determined using an X-ray diffractometer. The instrument was equipped with a long fine focus X-ray tube (with a copper Kα radiation source operated at 45 kV/40 mA), and a diffracted beam monochromator mounted in front of a scintillation detector. The instrument parameters included a scan range of 3.0 to 40.0 degrees 2-theta, a step size of 0.02 degrees 2-theta, and a scan time of 12.7 seconds per step. The instrument was interfaced with a computer for data acquisition and analysis. Each sample was uniformly crushed with a spatula edge and placed on a quartz, zero-background holder.

[4] = test system: other human prostanoid receptor subtypes; settings: cited from earlier work
[5] = test system: thermal hyperalgesia induced by intraplantar injection of PGE2; settings: oral administration; cited from earlier work
[6] = test system: mechanical hyperalgesia induced by carrageenan model; settings: cited from earlier work
[7] = test system: complete Freund's adjuvant-induced chronic inflammatory pain response; settings: cited from earlier work

- aw value [1]: about 0.6
- relative stability of crystalline forms [2]: more stable than Form J
SMILES: CCc1nc2c(C)nc(C)cc2n1-c1ccc(CCNC(=O)NS(=O)(=O)c2ccc(C)cc2)cc1 [Form A]

SMILES: CCc1nc2c(C)nc(C)cc2n1-c1ccc(CCNC(=O)NS(=O)(=O)c2ccc(C)cc2)cc1 [Form J]
- form after heating (XRPD) ([3]; heating to 120° C.): becomes Form A; also recorded: converted into Form A

SMILES: CCc1nc2c(C)nc(C)cc2n1-c1ccc(CCNC(=O)NS(=O)(=O)c2ccc(C)cc2)cc1 [Form X]
- form after heating (XRPD) ([3]; heating to 110° C.): becomes amorphous; also recorded: converted into amorphous

SMILES: CCc1nc2c(C)nc(C)cc2n1-c1ccc(CCNC(=O)NS(=O)(=O)c2ccc(C)cc2)cc1 [grapiprant, N-{2-[4-(2-ethyl-4,6-dimethyl-1H-imidazo[4,5-c]pyridin-1-yl)phenyl]ethyl}-N′-[(4-methylphenyl)sulfonyl]urea]
- selectivity for the EP4 receptor over other human prostanoid receptor subtypes [4]: highly selective
- ED50, reduction of thermal hyperalgesia [5]: 12.8 mg/kg
- effect on mechanical hyperalgesia [6]: significantly reduces
- effect on chronic inflammatory pain response [7]: reverses
